{"source": "patent US4260806A", "about": "“Carbocyclic thromboxane A2 analogues” (priority 1979, dated 1981)", "key": {"[1]": {"system": "blood platelet aggregation", "conditions": "literature; cited from earlier work"}, "[2]": {"system": "New Zealand white rabbits", "experiment": "effect of CTA2 on intact anesthetized rabbits", "format": "in vivo, rabbit", "experimental": "To study the effect of CTA2 on intact animals, New Zealand white rabbits 2-3.5 kg were anesthetized with pentobarbital sodium (25 mg/kg) and placed in the supine position. The right femoral and external jugular veins and the left common carotid artery were cannulated with polyethylene catheters. Standard limb needle electrodes were placed subcutaneously for recording the electrocardiogram (ECG). The trachea was cannulated with a glass tube connected to a pressure transducer for the recording of airway pressure. Mean arterial blood pressure (MABP), central venous pressure (CVP), airway pressure, and lead III of the ECG were continuously recorded on a Grass Model 7 oscillographic recorder. Sodium arachidonate (95% pure, Sigma Chamical) at 2.0 mg/kg or CTA2 (125 μg/kg) were injected into the […], and the rabbit observed until death. Two ml blood samples were drawn into 25 mM EDTA just prior to injection of drug and just prior to death for radio-immunoassay of thromboxane B2."}, "[3]": {"system": "human platelet-rich plasma", "experiment": "platelet aggregation in citrated human platelet-rich plasma (aggregometer)", "format": "cell-based", "experimental": "Platelet aggregation was studied in an aggregometer (Chronolog Corp., Phila., PA) using 0.5 ml citrated human platelet-rich plasma at 35° C. One minute after addition of analogue (up to 2 μl of a 25 mM solution in ethanol) aggregation was initiated by addition of sodium arachidonate (0.3-0.5 mM), ADP (2 μM) collagen (1 μg/ml), epinephrine (50 μM), 9,11-azo-PGH2 (0.1-0.6 μM). The analogues were also tested for their effects on the inhibition of ADP-induced aggregation by 2 nM prostacyclin or 20 nM prostaglandin D2."}, "cat coronary arteries": {"system": "cat coronary arteries", "experiment": "constriction of isolated perfused cat coronary arteries (perfusion pressure at constant flow)", "format": "cell-based", "experimental": "Thromboxane A2 analogues (up to 4 μl of a 2.5 mM solution in ethanol) were tested for their effects on cat coronary arteries continuously perfused with 10 ml Krebs-Henseleit solution as described below.\nCats of either sex (2.5-3.5 kg) were anesthetized with sodium pentobarbital (30 mg/kg) given intravenously. […] A 20-gauge stainless steel cannula was inserted into the right coronary artery via the coronary ostium. Distal to the cannula, approximately 1 cm of coronary artery was dissected free of surrounding tissue. The section of right coronary artery with the cannula in place was excised from the heart and immediately transferred to a constant flow perfusion apparatus.\nThe perfusion apparatus consists of a reservoir containing 20 ml of warm (37° C.) oxygenated (95% O2 +5% CO2) K-H solution which bathes the coronary artery and serves as recirculating perfusate. An increase in perfusion pressure signifies […]. Following an initial 1 hr. equilibrium period, vascular responsiveness was established by adding 25 mM KCl. […] Fresh K-H dilutions of stock thromboxane analog concentrations were added to the perfusate reservoir in 0.1-0.2 ml volumes. […] Constriction of the arteries was induced by addition of 15 or 30 nM 9,11-azo-prostaglandinendoperoxide (azo-PGH2), or 1 μM 9,11-methanoepoxy-PGH2."}, "[4]": {"system": "formation of thromboxane B2", "experiment": "formation of thromboxane B2"}, "coronary artery": {"system": "coronary artery", "conditions": "normal and high concentrations; literature; cited from earlier work"}, "[5]": {"conditions": "cited from earlier work"}}, "note": "Where two headings read alike, the source gives them in different places.", "data": [{"smiles": "CCCCCC/C=C/C1C2CC(ON2)C1C/C=C\\CCCC(=O)O", "note": "(stereo not drawn) [15-deoxy-9,11-epoxyimino-PGH2]", "values": [{"measurement": "effect on platelet aggregation", "setting": "[1]", "result": "inhibits platelet aggregation"}]}, {"smiles": "CCCCCC/C=C/C1C2CC(N=N2)C1C/C=C\\CCCC(=O)O", "note": "(stereo not drawn) [15-deoxy-9, 11-azo-PGH2]", "values": [{"measurement": "effect on platelet aggregation", "setting": "[1]", "result": "inhibits platelet aggregation"}]}, {"smiles": "CCCCC[C@H](O)/C=C/C1CC2CC(C2)C1C/C=C\\CCCC(=O)O", "note": "(stereo partly drawn) [CTA2, Carbocyclic Thromboxane A2, free acid]", "values": [{"measurement": "time of death after injection", "setting": "[2]; anesthetized rabbit, 125 μg/kg intravenously, typical response", "result": "nine"}, {"measurement": "sudden cardiac death in rabbits", "setting": "[2]; severe myocardial ischemia without coronary thrombosis", "result": "induces sudden cardiac death"}, {"measurement": "inhibition of arachidonic acid induced platelet aggregation", "setting": "[3]", "result": "potent inhibitor"}, {"measurement": "intrinsic ability to aggregate platelets", "setting": "[3]", "result": "no intrinsic ability to agreggate plateletes"}, {"measurement": "effect on arachidonic acid induced aggregation", "setting": "[3]; 1-2 μM", "result": "delayed the onset of platelet aggregation without actually inhibiting the magnitude of the overall response"}, {"measurement": "inhibition of platelet aggregation to a variety of prostanoids", "setting": "[3]; arachidonic acid, 9-11-azo PGH2, 9,11-methanoepoxy PGH2 and 9,11-epoxymethano PGH2", "result": "very potent inhibitor"}, {"measurement": "prevention of induced platelet aggregation", "setting": "[3]; at 4 to 5 μM", "result": "completely prevented"}, {"measurement": "prevention of induced platelet aggregation", "setting": "[3]; lower concentrations, 1 to 4 μM", "result": "only partially protective"}, {"measurement": "induction of platelet aggregation in vitro", "setting": "[3]; up to concentrations of 100 μM", "result": "failed to induce platelet aggregation"}, {"measurement": "rank order of constrictor potency", "setting": "cat coronary arteries; CTA2 vs azo-PGH2 >9,11-methanoepoxy-PGH2 >9,11 epoxymethano-PGH2 >>PGH2 >>Thromboxane B2", "result": "more potent a constrictor"}, {"measurement": "vasoconstricting potency compared with natural thromboxane A2", "setting": "cat coronary arteries; cat coronary arteries", "result": "potencies comparable to those of the natural thromboxane A2"}, {"measurement": "antagonism of the coronary constrictor effects of 9,11-methanoepoxy PGH2", "setting": "cat coronary arteries; concentrations up to 10^-7 M", "result": "did not antagonize"}, {"measurement": "constriction (increased perfusion pressure at constant flow)", "setting": "cat coronary arteries; isolated perfused cat coronary arteries", "result": "dose-dependent constriction"}, {"measurement": "potency relative to 9,11-azo PGH2 (EC20)", "setting": "cat coronary arteries; relative to 9,11-azo PGH2", "result": 4, "unit": "times"}, {"measurement": "potency relative to the other two PGH2 derivatives (EC20)", "setting": "cat coronary arteries; relative to 9,11-methanoepoxy PGH2 and 9,11-epoxymethano PGH2", "result": "5-6 times"}, {"measurement": "potency relative to TB2, by concentration giving a 20 mm Hg increase in coronary perfusion pressure (EC20)", "setting": "cat coronary arteries; relative to TB2", "result": "10,000 times"}, {"measurement": "inhibition of the formation of thromboxane B2", "setting": "[4]", "result": "selectively inhibits"}]}, {"smiles": "CCCCC[C@@H](O)/C=C/[C@H]1C[C@H]2C[C@@H]([C@@H]1C/C=C\\CCCC(=O)O)C2(C)C", "note": "[PTA2, pinane thromboxane A2, reference compound]", "values": [{"measurement": "antagonism of the coronary constrictor effects of CTA2", "setting": "cat coronary arteries", "result": "almost completely antagonized"}, {"measurement": "effect on coronary artery contraction", "setting": "coronary artery", "result": "inhibits coronary artery contraction"}]}, {"smiles": "CCCCC[C@H](O)/C=C/[C@H]1O[C@H]2C[C@H](O2)[C@@H]1C/C=C\\CCCC(=O)O", "note": "[TA2, thromboxane A2]", "values": [{"measurement": "half-life", "setting": "[5]; pH 7.4 and 37° C.", "result": 30, "unit": "s"}]}, {"smiles": "CCCCC[C@H](O)/C=C/[C@@H]1[C@H]2C/C(=C/CCCC(=O)O)O[C@H]2C[C@H]1O", "note": "[prostacyclin, 6,9 α-oxido-11α, 15 α-dihydroxyprosta (Z), 5, E (13)-dienoic acid]", "values": [{"measurement": "effect on platelet aggregation", "setting": "[1]", "result": "most potent inhibitor of blood platelet aggregation"}, {"measurement": "half-life", "setting": "[5]; physiological conditions", "result": "about 2 minutes"}]}]}
